From patent US8791108B2, “Inhibitors of human immunodeficiency virus replication” (priority 2011, dated 2014)
Like-named read-outs stand apart in the source and are kept apart here.

System: recombinant NL-Rluc virus
Assay: Inhibition of HIV replication (NL-RLuc luciferase reporter virus, MT-2 cells)
Assay type: cell-based
Settings: Human immunodeficiency virus 1, MT2, 120 h

Row | SMILES | EC50 (read-out: Activity) | EC50 (read-out: EC50 μM)
1 | Cc1nc2cc(C(=O)N(C)CCCn3ccnc3)nn2c(-c2cc(F)c3c(c2C)CCCO3)c1[C@H](OC(C)(C)C)C(=O)O [Example 37, (2S)-2-(2-((3-(1H-imidazol-1-yl)propyl)(methyl)carbamoyl)-7-(8-fluoro-5-methylchroman-6-yl)-5-methylpyrazolo[1,5-a]pyrimidin-6-yl)-2-(tert-butoxy)acetic acid] | > 1 µM | 20 µM
2 | Cc1nc2cc(C(=O)NCc3ccco3)nn2c(-c2cc(F)c3c(c2C)CCCO3)c1[C@H](OC(C)(C)C)C(=O)O [Example 38, (2S)-2-(tert-butoxy)-2-(7-(8-fluoro-5-methylchroman-6-yl)-2-((furan-2-ylmethyl)carbamoyl)-5-methylpyrazolo[1,5-a]pyrimidin-6-yl)acetic acid] | 0.1 to 1 µM | 0.167 µM
3 | Cc1nc2cc(C(=O)NC(C)c3ccccc3)nn2c(-c2cc(F)c3c(c2C)CCCO3)c1[C@H](OC(C)(C)C)C(=O)O (stereo partly shown) [Example 39] | < 0.1 µM | –
4 | Cc1nc2cc(C(=O)NCc3ccccc3Cl)nn2c(-c2cc(F)c3c(c2C)CCCO3)c1[C@H](OC(C)(C)C)C(=O)O [Example 40, (2S)-2-(tert-butoxy)-2-(2-((2-chlorobenzyl)carbamoyl)-7-(8-fluoro-5-methylchroman-6-yl)-5-methylpyrazolo[1,5-a]pyrimidin-6-yl)acetic acid] | < 0.1 µM | –
5 | COc1ccc(CNC(=O)c2cc3nc(C)c([C@H](OC(C)(C)C)C(=O)O)c(-c4cc(F)c5c(c4C)CCCO5)n3n2)cc1OC [Example 41, (2S)-2-(tert-butoxy)-2-(2-((3,4-dimethoxybenzyl)carbamoyl)-7-(8-fluoro-5-methylchroman-6-yl)-5-methylpyrazolo[1,5-a]pyrimidin-6-yl)acetic acid] | 0.1 to 1 µM | –
6 | COc1ccccc1CNC(=O)c1cc2nc(C)c([C@H](OC(C)(C)C)C(=O)O)c(-c3cc(F)c4c(c3C)CCCO4)n2n1 [Example 42, (2S)-2-(tert-butoxy)-2-(7-(8-fluoro-5-methylchroman-6-yl)-2-((2-methoxybenzyl)carbamoyl)-5-methylpyrazolo[1,5-a]pyrimidin-6-yl)acetic acid] | < 0.1 µM | –
7 | Cc1nc2cc(C(=O)NCC3CC3)nn2c(-c2cc(F)c3c(c2C)CCCO3)c1[C@H](OC(C)(C)C)C(=O)O [Example 43, (2S)-2-(tert-butoxy)-2-(2-((cyclopropylmethyl)carbamoyl)-7-(8-fluoro-5-methylchroman-6-yl)-5-methylpyrazolo[1,5-a]pyrimidin-6-yl)acetic acid] | 0.1 to 1 µM | –
8 | Cc1nc2cc(C(=O)NCc3ccc(OC(F)(F)F)cc3)nn2c(-c2cc(F)c3c(c2C)CCCO3)c1[C@H](OC(C)(C)C)C(=O)O [Example 44, (2S)-2-(tert-butoxy)-2-(7-(8-fluoro-5-methylchroman-6-yl)-5-methyl-2-((4-(trifluoromethoxy)benzyl)carbamoyl)pyrazolo[1,5-a]pyrimidin-6-yl)acetic acid] | < 0.1 µM | –
9 | Cc1nc2cc(C(=O)NCc3csc(-c4ccccc4)n3)nn2c(-c2cc(F)c3c(c2C)CCCO3)c1[C@H](OC(C)(C)C)C(=O)O [Example 45, (2S)-2-(tert-butoxy)-2-(7-(8-fluoro-5-methylchroman-6-yl)-5-methyl-2-(((2-phenylthiazol-4-yl)methyl)carbamoyl)pyrazolo[1,5-a]pyrimidin-6-yl)acetic acid] | < 0.1 µM | –
10 | Cc1nc2cc(C(=O)NCc3ccc(Cl)cc3)nn2c(-c2cc(F)c3c(c2C)CCCO3)c1[C@H](OC(C)(C)C)C(=O)O [Example 46, (2S)-2-(tert-butoxy)-2-(2((4-chlorobenzyl)carbamoyl)-7-(8-fluoro-5-methylchroman-6-yl)-5-methylpyrazolo[1,5-a]pyrimidin-6-yl)acetic acid] | < 0.1 µM | –
11 | Cc1nc2cc(C(=O)NCCNc3ccccc3)nn2c(-c2cc(F)c3c(c2C)CCCO3)c1[C@H](OC(C)(C)C)C(=O)O [Example 47, (2S)-2-(tert-butoxy)-2-(7-(8-fluoro-5-methylchroman-6-yl)-5-methyl-2-((2-(phenylamino)ethyl)carbamoyl)pyrazolo[1,5-a]pyrimidin-6-yl)acetic acid] | 0.1 to 1 µM | 0.281 µM
12 | Cc1nc2cc(C(=O)NCCc3ccccc3)nn2c(-c2cc(F)c3c(c2C)CCCO3)c1[C@H](OC(C)(C)C)C(=O)O [Example 48, (2S)-2-(tert-butoxy)-2-(7-(8-fluoro-5-methylchroman-6-yl)-5-methyl-2-(phenethylcarbamoyl)pyrazolo[1,5-a]pyrimidin-6-yl)acetic acid] | < 0.1 µM | –
13 | Cc1nc2cc(C(=O)NCCC(C)C)nn2c(-c2cc(F)c3c(c2C)CCCO3)c1[C@H](OC(C)(C)C)C(=O)O [Example 49, (2S)-2-(tert-butoxy)-2-(7-(8-fluoro-5-methylchroman-6-yl)-2-(isopentylcarbamoyl)-5-methylpyrazolo[1,5-a]pyrimidin-6-yl)acetic acid] | < 0.1 µM | –
14 | Cc1nc2cc(C(=O)NCCCc3ccccc3)nn2c(-c2cc(F)c3c(c2C)CCCO3)c1[C@H](OC(C)(C)C)C(=O)O [Example 50] | < 0.1 µM | –
15 | Cc1nc2cc(C(=O)NCCCn3ccnc3)nn2c(-c2cc(F)c3c(c2C)CCCO3)c1[C@H](OC(C)(C)C)C(=O)O [Example 51] | > 1 µM | –
16 | Cc1nc2cc(C(=O)NCc3ccc(N(C)C)cc3)nn2c(-c2cc(F)c3c(c2C)CCCO3)c1[C@H](OC(C)(C)C)C(=O)O [Example 52, (2S)-2-(tert-butoxy)-2-(2-((4-(dimethylamino)benzyl)carbamoyl)-7-(8-fluoro-5-methylchroman-6-yl)-5-methylpyrazolo[1,5-a]pyrimidin-6-yl)acetic acid] | < 0.1 µM | –
17 | Cc1nc2cc(C(=O)NCc3ccc(S(N)(=O)=O)cc3)nn2c(-c2cc(F)c3c(c2C)CCCO3)c1[C@H](OC(C)(C)C)C(=O)O [Example 53, (2S)-2-(tert-butoxy)-2-(7-(8-fluoro-5-methylchroman-6-yl)-5-methyl-2-((4-sulfamoylbenzyl)carbamoyl)pyrazolo[1,5-a]pyrimidin-6-yl)acetic acid] | > 1 µM | 3.19 µM
18 | Cc1nc2cc(C(=O)NCc3cccc(Cl)c3)nn2c(-c2cc(F)c3c(c2C)CCCO3)c1[C@H](OC(C)(C)C)C(=O)O [Example 54, (2S)-2-(tert-butoxy)-2-(2((3-chlorobenzyl)carbamoyl)-7-(8-fluoro-5-methylchroman-6-yl)-5-methylpyrazolo[1,5-a]pyrimidin-6-yl)acetic acid] | < 0.1 µM | –
19 | Cc1nc2cc(C(=O)NCCOc3ccccc3)nn2c(-c2cc(F)c3c(c2C)CCCO3)c1[C@H](OC(C)(C)C)C(=O)O [Example 55, (2S)-2-(tert-butoxy)-2-(7-(8-fluoro-5-methylchroman-6-yl)-5-methyl-2-((2-phenoxyethyl)carbamoyl)pyrazolo[1,5-a]pyrimidin-6-yl)acetic acid] | < 0.1 µM | –
20 | Cc1nc2cc(C(=O)N[C@H]3C[C@@H]3c3ccccc3)nn2c(-c2cc(F)c3c(c2C)CCCO3)c1[C@H](OC(C)(C)C)C(=O)O [Example 56, (2S)-2-(tert-butoxy)-2-(7-(8-fluoro-5-methylchroman-6-yl)-5-methyl-2-(((1S,2R)-2-phenylcyclopropyl)carbamoyl)pyrazolo[1,5-a]pyrimidin-6-yl)acetic acid] | < 0.1 µM | –
21 | Cc1nc2cc(C(=O)NCCc3ccc(F)cc3)nn2c(-c2cc(F)c3c(c2C)CCCO3)c1[C@H](OC(C)(C)C)C(=O)O [Example 57, (2S)-2-(tert-butoxy)-2-(7-(8-fluoro-5-methylchroman-6-yl)-2-((4-fluorophenethyl)carbamoyl)-5-methylpyrazolo[1,5-a]pyrimidin-6-yl)acetic acid] | < 0.1 µM | –
